According to PubChem BioAssay (NCI):
“And” between values parts separate entries of the source, which are not always exact repeats. Equal values may be shown once.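 Assay format: 96-well plates, 48-hour exposure. GI50: concentration for 50% inhibition of growth. TGI: concentration producing complete growth inhibition.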

Key:
Assay in all cases: NCI-60 cell line screen, 48 h
SK-MEL-2 melanoma = test system: SK-MEL-2 melanoma
T-47D breast = test system: T-47D breast
CCRF-CEM leukemia = test system: CCRF-CEM leukemia
MCF7 breast = test system: MCF7 breast
786-0 renal = test system: 786-0 renal
ACHN renal = test system: ACHN renal
SNB-19 CNS = test system: SNB-19 CNS
KM12 colon = test system: KM12 colon
OVCAR-8 ovarian = test system: OVCAR-8 ovarian
CAKI-1 renal = test system: CAKI-1 renal

## COc1cc2c3c(n(CCCN4CCNCC4)c(=O)c2cc1OC)-c1cc2c(cc1C3=O)OCO2
SK-MEL-2 melanoma
  GI50: 2.91 µM
  TGI: 28.3 µM
T-47D breast
  GI50: 2.54 µM
  TGI: 21.3 µM
CCRF-CEM leukemia
  GI50: 0.0118 µM
  TGI: 0.389 µM
MCF7 breast
  GI50: 0.0119 µM
  TGI: 7.66 µM
786-0 renal
  GI50: 0.0513 µM
  TGI: 0.429 µM
ACHN renal
  GI50: 0.0394 µM
  TGI: 0.283 µM
SNB-19 CNS
  GI50: 0.835 µM
  TGI: 12.4 µM
KM12 colon
  GI50: 0.633 µM
  TGI: 2.24 µM
OVCAR-8 ovarian
  GI50: 0.0803 µM
  TGI: 1.06 µM
CAKI-1 renal
  GI50: 0.128 µM
  TGI: 2.02 µM

## C/C(=N\NC(=S)N1CCN(c2ccccn2)CC1)c1ccccn1
SK-MEL-2 melanoma
  GI50: 0.231 µM
  TGI: 12.9 µM
T-47D breast
  TGI: 7.37 µM
CCRF-CEM leukemia
  TGI: 0.878 µM and 0.317 µM
MCF7 breast
  TGI: 11.4 µM
786-0 renal
  GI50: 0.00656 µM
  TGI: 13.5 µM
ACHN renal
  GI50: 0.00217 µM
  TGI: 8.52 µM
SNB-19 CNS
  GI50: 0.183 µM
  TGI: 15 µM
KM12 colon
  GI50: 0.0219 µM
  TGI: 14.1 µM
OVCAR-8 ovarian
  TGI: 20.4 µM
CAKI-1 renal
  GI50: 0.301 µM
  TGI: 15.5 µM

## COc1ccc(-c2cc(/C=C3\C(=O)Nc4cc(Cl)ccc43)[nH]n2)cc1
SK-MEL-2 melanoma
  GI50: 4.35 µM
  TGI: > 100 µM
T-47D breast
  GI50: 6.6 µM
  TGI: > 100 µM
CCRF-CEM leukemia
  GI50: 2.24 µM
  TGI: 28.9 µM
MCF7 breast
  GI50: 2.19 µM
  TGI: 37.3 µM
786-0 renal
  GI50: 9.71 µM
  TGI: > 100 µM
ACHN renal
  GI50: 5.49 µM
  TGI: > 100 µM
SNB-19 CNS
  GI50: 4.65 µM
  TGI: > 100 µM
KM12 colon
  GI50: 3.46 µM
  TGI: 56.1 µM
OVCAR-8 ovarian
  GI50: 4.55 µM
  TGI: 98.6 µM
CAKI-1 renal
  GI50: 1.63 µM
  TGI: 21.6 µM

## O=C(/C=C/C12c3ccccc3C(c3ccccc31)C1C(=O)N(c3ccc(Cl)cc3)C(=O)C12)c1ccccn1 (stereo not given)
SK-MEL-2 melanoma
  GI50: 0.529 µM
  TGI: 2.74 µM
T-47D breast
  GI50: 0.312 µM
  TGI: 4.15 µM
CCRF-CEM leukemia
  GI50: 0.29 µM
  TGI: > 100 µM
MCF7 breast
  GI50: 0.313 µM
  TGI: > 23 µM
786-0 renal
  GI50: 0.194 µM
  TGI: 0.398 µM
ACHN renal
  GI50: 0.234 µM
  TGI: 0.56 µM
SNB-19 CNS
  GI50: 0.426 µM
  TGI: 2 µM
KM12 colon
  GI50: 0.345 µM
OVCAR-8 ovarian
  GI50: 0.328 µM
  TGI: > 100 µM
CAKI-1 renal
  GI50: 1.07 µM
  TGI: 4.95 µM

## COC1=CC(c2ccc[nH]2)=N/C1=C\c1[nH]c(C)c(C(=O)CCC(=O)Oc2ccc3c(c2)CCC2C3CC[C@]3(C)[C@@H](O)CC[C@@H]23)c1C (stereo not given in full)
SK-MEL-2 melanoma
  GI50: 3.52 µM
  TGI: 17.8 µM
T-47D breast
  GI50: 2.19 µM
  TGI: > 100 µM
CCRF-CEM leukemia
  GI50: 0.304 µM
  TGI: > 100 µM
MCF7 breast
  GI50: 0.917 µM
  TGI: > 100 µM
786-0 renal
  GI50: 2.04 µM
  TGI: 4.35 µM
ACHN renal
  GI50: 1.94 µM
  TGI: 6.7 µM
SNB-19 CNS
  GI50: 4.13 µM
  TGI: 72.6 µM
KM12 colon
  GI50: 3 µM
  TGI: > 100 µM
OVCAR-8 ovarian
  GI50: 3.94 µM
  TGI: > 100 µM
CAKI-1 renal
  GI50: 2.38 µM
  TGI: > 100 µM

## Oc1c(C(Nc2ccccn2)c2cccc(Oc3ccccc3)c2)ccc2cccnc12 (stereo not given)
SK-MEL-2 melanoma
  GI50: 1.68 µM
  TGI: 21 µM
T-47D breast
  GI50: 0.785 µM
  TGI: 33.2 µM
CCRF-CEM leukemia
  GI50: 0.477 µM
  TGI: > 100 µM
MCF7 breast
  GI50: 0.416 µM
  TGI: 13.9 µM
786-0 renal
  GI50: 0.657 µM
  TGI: 11.1 µM
ACHN renal
  GI50: 0.41 µM
  TGI: 7.2 µM
SNB-19 CNS
  GI50: 0.366 µM
  TGI: 14.7 µM
KM12 colon
  GI50: 0.45 µM
  TGI: 23.4 µM
OVCAR-8 ovarian
  GI50: 0.424 µM
  TGI: 19.7 µM
CAKI-1 renal
  GI50: 0.319 µM
  TGI: 10 µM

## COC(=O)c1cc(NC(=O)c2cc(NC(=O)c3cc([N+](=O)[O-])n(C)c3)cn2C)cn1C
SK-MEL-2 melanoma
  GI50: > 100 µM
  TGI: > 100 µM
T-47D breast
  GI50: > 100 µM
  TGI: > 100 µM
CCRF-CEM leukemia
  GI50: 54 µM
  TGI: > 100 µM
MCF7 breast
  GI50: > 100 µM
  TGI: > 100 µM
786-0 renal
  GI50: > 100 µM
  TGI: > 100 µM
ACHN renal
  GI50: 2.53 µM
  TGI: 53.5 µM
SNB-19 CNS
  GI50: 34.2 µM
  TGI: > 100 µM
KM12 colon
  GI50: 80.8 µM
  TGI: > 100 µM
OVCAR-8 ovarian
  GI50: > 100 µM
  TGI: > 100 µM
CAKI-1 renal
  GI50: > 100 µM
  TGI: > 100 µM

## Cc1ccc(C)c2c1C(=O)N(c1ccc(F)cc1F)C2=O
SK-MEL-2 melanoma
  GI50: > 100 µM
  TGI: > 100 µM
T-47D breast
  GI50: 74.5 µM
  TGI: > 100 µM
CCRF-CEM leukemia
  GI50: > 100 µM
  TGI: > 100 µM
MCF7 breast
  GI50: > 100 µM
  TGI: > 100 µM
786-0 renal
  GI50: > 100 µM
  TGI: > 100 µM
ACHN renal
  GI50: > 100 µM
  TGI: > 100 µM
SNB-19 CNS
  GI50: > 100 µM
  TGI: > 100 µM
KM12 colon
  GI50: > 100 µM
  TGI: > 100 µM
OVCAR-8 ovarian
  GI50: > 100 µM
  TGI: > 100 µM
CAKI-1 renal
  GI50: > 100 µM
  TGI: > 100 µM

## Cc1ccc(-c2nc3nc(-c4ccc(F)cc4)nc(N4CCNCC4)c3o2)cc1
SK-MEL-2 melanoma
  GI50: 14.9 µM
  TGI: 35.4 µM
T-47D breast
  GI50: 2.3 µM
  TGI: 6.92 µM
CCRF-CEM leukemia
  GI50: 1.91 µM
  TGI: 4.74 µM
MCF7 breast
  GI50: 1.66 µM
  TGI: 3.51 µM
786-0 renal
  GI50: 1.76 µM
  TGI: 3.34 µM
ACHN renal
  GI50: 1.79 µM
  TGI: 3.19 µM
SNB-19 CNS
  GI50: 5.97 µM
  TGI: 19.8 µM
KM12 colon
  GI50: 1.88 µM
  TGI: 3.61 µM
OVCAR-8 ovarian
  GI50: 2.35 µM
  TGI: 5.82 µM
CAKI-1 renal
  GI50: 1.55 µM
  TGI: 2.92 µM

## COC(=O)C1=COC2OC3C(C(C)O)C(=O)OC34C=CC1C24 (stereo not given)
SK-MEL-2 melanoma
  TGI: > 100 µM
T-47D breast
  TGI: > 100 µM
CCRF-CEM leukemia
  TGI: 55.4 µM
MCF7 breast
  TGI: > 100 µM
786-0 renal
  TGI: > 100 µM
ACHN renal
  TGI: > 100 µM
SNB-19 CNS
  TGI: > 100 µM
KM12 colon
  TGI: > 100 µM
OVCAR-8 ovarian
  TGI: 47.2 µM
CAKI-1 renal
  TGI: > 100 µM

## NC(=O)c1cccc2c(N[C@H](CN3CCC3)c3ccc(Cl)c(C(F)(F)F)c3)ncnc12
SK-MEL-2 melanoma
  GI50: 1.96 µM
  TGI: 9.74 µM
T-47D breast
  GI50: 0.101 µM
  TGI: 2.47 µM
CCRF-CEM leukemia
  GI50: 0.871 µM
  TGI: 12 µM
MCF7 breast
  GI50: 0.396 µM
  TGI: 3.75 µM
786-0 renal
  GI50: 0.0921 µM
  TGI: 1.76 µM
ACHN renal
  GI50: 1.38 µM
  TGI: 13.5 µM
SNB-19 CNS
  GI50: 1.19 µM
  TGI: 11.4 µM
KM12 colon
  GI50: 0.885 µM
  TGI: 13.3 µM
OVCAR-8 ovarian
  GI50: 4.55 µM
  TGI: 19.2 µM
CAKI-1 renal
  GI50: 0.232 µM
  TGI: 3.39 µM
